The record followed here is ChEMBL document CHEMBL3286278, “Antifungal and cytotoxic 2-acylcyclohexane-1,3-diones from Peperomia alata and P. trineura” (J Nat Prod, 2014).

In experiment [1] the test system is Cladosporium cladosporioides. The experiment can be described thus: Antifungal activity against Cladosporium cladosporioides after 48 hrs. Format: functional.
Experiment [2] has as its system Cladosporium sphaerospermum. The experiment can be described thus: Antifungal activity against Cladosporium sphaerospermum after 48 hrs. Format: functional.
A further experiment concerns K562. The experiment can be described thus: Cytotoxicity against human K562 cells after 48 hrs by MTT assay. Format: functional, cell-based. Conditions: K562, 48 h.
A short description of experiment [3]: Cytotoxicity against human NALM6 cells after 48 hrs by MTT assay. In kind it is functional, cell-based. Conditions: NALM-6, 48 h. (Tetrazolium dyes change colour on reduction, which living cells bring about.)

`CCCCC/C=C\CCCCCCCCC(=O)C1=C(O)CC[C@@H](O)C1=O`: the Activity in experiment [1] came out at 1 µg; in experiment [2], 10 µg. Further, the IC50 stood at 26 µM in the experiment on K562 and 14.3 µM in experiment [3].

As to `O=C(CCCCCCCC/C=C/c1ccccc1)C1=C(O)CCCC1=O`, the Activity worked out at 5 µg in experiment [1] and 25 µg in experiment [2].

Take `O=C(CC/C=C/c1ccccc1)C1=C(O)CCCC1=O`: the Activity in experiment [1] and in experiment [2] was 0.25 µg throughout.

For the compound `O=C1CCCC(O)=C1C(=O)CCc1ccc2c(c1)OCO2`, the Activity in experiment [1] and in experiment [2] was 0.5 µg each time.

As for `Clc1ccc(COC(Cn2ccnc2)c2ccc(Cl)cc2Cl)c(Cl)c1` (stereo not given) [MICONAZOLE], the Activity in experiment [1] and in experiment [2] was 1 µg each time.

As to `O=C(CCCCCCCCCCCCCCCCc1ccc2c(c1)OCO2)C1=C(O)CCCC1=O`, the Activity in experiment [1] and in experiment [2] was 5 µg throughout.

As to NYSTATIN, the Activity in experiment [1] and in experiment [2] was 1 µg throughout.

As for `O=C(CCCCCCCCCCCCCCc1ccc2c(c1)OCO2)C1=C(O)CCCC1=O`, the Activity in experiment [1] and in experiment [2] was 5 µg throughout.

With `CCCCC/C=C\CCCCCCCCC(=O)C1=C(O)CCCC1=O`, the Activity worked out at 10 µg in experiment [1] and 25 µg in experiment [2].

By IC50 is commonly meant the point on the concentration scale where inhibition reaches its midpoint.
